Like-named read-outs stand apart in the source and are kept apart here.
Columns and labels:
GPR139 = biological target: T1, GPR139 (Homo sapiens, UniProt Q6DWJ6); test: GPR139 Agonist titration / agonist counterscreen assay (calcium detection, HEK-GPR139 cells); format: cell-based; parameters: expressed in transfected cells; host or cells: HEK Aequorin cells, Maxcyte transient transfection; details: GPR139 Agonist Activity; for EC50: read-out: EC50; for Averaged Max % Response (±St. Dev.): activity relative to known control
T1 sequence (Q6DWJ6 1-353): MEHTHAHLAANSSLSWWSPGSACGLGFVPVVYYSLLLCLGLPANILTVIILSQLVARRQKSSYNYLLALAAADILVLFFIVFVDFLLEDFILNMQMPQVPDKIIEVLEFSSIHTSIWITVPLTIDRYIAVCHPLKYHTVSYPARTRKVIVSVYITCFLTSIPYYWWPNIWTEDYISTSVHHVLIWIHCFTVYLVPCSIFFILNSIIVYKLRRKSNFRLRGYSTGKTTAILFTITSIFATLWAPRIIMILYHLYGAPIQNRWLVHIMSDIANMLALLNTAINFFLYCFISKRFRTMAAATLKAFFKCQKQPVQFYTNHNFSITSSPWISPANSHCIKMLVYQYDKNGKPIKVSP
Protocol: GPR activity was assessed using a calcium detection assay. […] Negative control samples were treated with DMSO. […] Intracellular calcium was measured using Calcium 5.

parental HEK cells = test: HEK parental Agonist Counterscreen Assay (non-transfected cells); format: cell-based; details: for Averaged Max % Response (±St. Dev.): activity relative to known control
Source text: The high control for the agonist counterscreen was Forskolin not acetylcholine.

[1] = HEK Agonist Activity section of Table 4 (parental HEK counterscreen)
[2] = values printed in E-notation without unit
[3] = Homo sapiens, HEK293, HEK Agonist Activity, parental non-transfected HEK cells
[4] = Homo sapiens, HEK293, HEK Agonist Activity section of Table 4 (parental HEK counterscreen)

SMILES	Averaged Max % Response (±St. Dev.) (GPR139)	Lipophilic Efficiency (logD) (parental HEK cells; HEK Agonist Activity section)	Lipophilic Efficiency (logP) (parental HEK cells; HEK Agonist Activity section)	EC50 (parental HEK cells; [1])	Averaged Max % Response (±St. Dev.) (parental HEK cells; HEK Agonist Activity section)	Lipophilic Efficiency (logD) (GPR139; based on logD)	Lipophilic Efficiency (logP) (GPR139; based on logP)	Hill Slope (GPR139; fitted dose-response curve)	Efficiency Ligand (GPR139; ligand efficiency)	EC50 (GPR139; [2])	Lipophilic Efficiency (logD) (parental HEK cells; HEK Agonist Activity)	Lipophilic Efficiency (logP) (parental HEK cells; HEK Agonist Activity)	Averaged Max % Response (±St. Dev.) (parental HEK cells; HEK Agonist Activity)	EC50 (parental HEK cells; [3])	other results
Nc1ccc2c(C(F)(F)F)cc(=O)oc2c1 [SR-01000597171]	177.62 ± 11.26%	3.35	3.35	10700 nM	92.06 ± 10.88%										Efficiency Ligand (GPR139): 0.47; Lipophilic Efficiency (logD) (GPR139): 3.74; Lipophilic Efficiency (logP) (GPR139): 3.74; EC50 (GPR139; HEK-GPR139 cells): > 4400 nM; Hill Slope (parental HEK cells; HEK Agonist Activity section): 2.90
Cc1onc(-c2ccccc2Cl)c1C(=O)NNC(=O)CSc1ccccc1[N+](=O)[O-] [SR-01000633083]	100.43 ± 4.95%					4.82	4.81	0.91	0.38	6.7 nM	1.49	1.48	21.09 ± 6.01%	> 14100 nM	
Cc1nn(-c2ccccc2)nc1C(=O)NNC(=O)CSCc1cccc2ccccc12 [SR-01000634249]	89.30 ± 20.10%	1.65	1.65	> 14100 nM	7.70 ± 7.23%										Efficiency Ligand (GPR139): 0.26; Hill Slope (GPR139): 0.69; Lipophilic Efficiency (logD) (GPR139): 2.57; Lipophilic Efficiency (logP) (GPR139): 2.57; EC50 (GPR139; HEK-GPR139 cells): 1700 nM
COc1cc(C(=O)NNC(=O)C(C)Oc2ccc(Cl)cc2Cl)cc(OC)c1OC (stereo not drawn) [SR-01000644888]	113.87 ± 14.45%	1.84	1.80		30.23 ± 7.95%										Efficiency Ligand (GPR139): 0.31; Hill Slope (GPR139): 0.74; Lipophilic Efficiency (logD) (GPR139): 3.44; Lipophilic Efficiency (logP) (GPR139): 3.40; EC50 (GPR139; HEK-GPR139 cells): 352 nM; EC50 (parental HEK cells; [4]): > 14100 nM
COc1ccc(CCNC(=O)c2cccc(-c3ccc(OC)nc3)c2)cc1 [SR-01000652579]	108.92 ± 9.07%	1.08	1.08	> 14200 nM	11.17 ± 6.82%	3.26	3.26	0.44	0.36	93.2 nM					
COc1ccc(CCNC(=O)c2cnc(N3CCCC3CO)s2)cc1 (stereo not drawn) [SR-01000652673]	123.26 ± 12.43%					5.68	5.68	0.93	0.44	11.5 nM	2.61	2.61	3.95 ± 2.97%	> 13400 nM	
COc1ccc(CCNC(=O)c2ccnc(N3CCN(Cc4ccc5c(c4)OCO5)CC3)c2)cc1 [SR-01000654192]	115.41 ± 10.16%	1.42	1.29	> 13300 nM	14.64 ± 17.11%	3.51	3.38	0.89	0.28	110 nM					
COc1ccc(CCNC(=O)c2cncc(-c3csc4ccccc34)c2)cc1 [SR-01000654639]	99.13 ± 2.27%	0.64	0.64	> 14000 nM	1.22 ± 5.69%	2.51	2.51	1.05	0.34	191 nM					
COc1ccc(CCCC(=O)c2cccc(-c3ccc(OC)cc3)c2)cc1 [SR-01000655128]	106.36 ± 3.74%	1.68	1.68		0.74 ± 3.27%	3.70	3.70	0.50	0.36						EC50 (parental HEK cells; [4]): > 14100 nM
COCC(=O)Oc1c(Sc2c(F)c(F)c(F)c(F)c2F)c(C)nn1C(C)(C)C [SR-01000906953]	95.58 ± 3.98%	1.23	1.23	5700 nM	192.43 ± 25.16%	3.16	3.16	1.02	0.36	68.1 nM					Hill Slope (parental HEK cells; HEK Agonist Activity section): 9.35
CCOc1ccc(C(=O)NCCn2ccc3ccccc32)cc1OCC [SR-01000907288]	110.51 ± 12.41%					5.58	5.58		0.49		1.28	1.28	14.88 ± 7.51%	> 14100 nM	
COc1ccccc1OCC(=O)NCCc1ccc2c(c1)CCCN2C [SR-01000911654]	102.69 ± 7.41%					4.95	4.94	0.31	0.44	7.9 nM	1.69	1.69	−5.46 ± 4.05%	> 14100 nM	
O=C(NCCS(=O)(=O)N1CCc2ccccc2C1)C(c1ccccc1)c1ccccc1 [SR-01000911742]	93.88 ± 11.00%	1.49	1.49		−12.80 ± 5.17%										Efficiency Ligand (GPR139): 0.25; Hill Slope (GPR139): 0.32; Lipophilic Efficiency (logD) (GPR139): 2.28; Lipophilic Efficiency (logP) (GPR139): 2.28; EC50 (GPR139; HEK-GPR139 cells): 2300 nM; EC50 (parental HEK cells; [4]): > 14100 nM
COc1ccc(NC(=O)NCC2CC(=O)N(c3ccccc3)C2)cc1 (stereo not drawn) [SR-01000912290]	103.55 ± 8.13%					6.11	6.11	1.13	0.44	14.3 nM	3.12	3.12	20.29 ± 5.75%	> 14100 nM	
Cc1ccc(SCC(=O)Nc2nnc(-c3ccc(Cl)cc3)o2)cc1 [SR-01000913573]	186.79 ± 37.86%	0.84	0.84	> 14100 nM	8.58 ± 4.44%	2.75	2.75		0.39	> 174 nM					

Reference: patent publication US20250099420A1, “SMALL MOLECULE MODULATORS OF GPR139 COMPLEX” (University of Florida Research Foundation, Incorporated, priority 2022, published 2025)
